Measurements taken from the supplement of paper PMC10307832.

Legend:
Assay in all cases: relative viability (nuclei count vs DMSO), 5 days (fraction); higher = more cells survive
[1] = compound: C1=CC=C(C(=C1)C2=CC=C(C=C2)C3=CSC4=C3C(=C(C(=O)N4)C#N)O)O + Cc1nc(NC(=O)N2CCC[C@H]2C(N)=O)sc1-c1ccnc(C(C)(C)C(F)(F)F)c1 [Alpelisib] (partner 2 µM)
Procedure, shortened: (§1)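 Lung cancer cell lines were seeded in 1536-well plates and dosed by pin tool the next day, with either a single drug or a fixed anchor-drug dose combined with five library-drug doses (not always all listed) spaced in √10 steps. Five days later, one step fixed the cells and stained their nuclei (final 0.05% Triton X-100, 1% formaldehyde, 1 ug/ml Hoechst), and nuclei were counted on 4× images. Relative viability is the nuclei count in treated wells divided by the count in vehicle wells, and each value is the median of duplicate plates.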

[2] = compound: C1=CC=C(C(=C1)C2=CC=C(C=C2)C3=CSC4=C3C(=C(C(=O)N4)C#N)O)O + O=C(c1cc(Cc2n[nH]c(=O)c3ccccc23)ccc1F)N1CCN(C(=O)C2CC2)CC1 [Olaparib] (partner 8 µM)
Procedure, shortened: as §1

[3] = compound: C1=CC=C(C(=C1)C2=CC=C(C=C2)C3=CSC4=C3C(=C(C(=O)N4)C#N)O)O + C[C@]1(O)C[C@@H](c2nc(-c3ccc4ccc(-c5ccccc5)nc4c3)c3c(N)nccn32)C1 [Linsitinib] (partner 1 µM)
Procedure, shortened: as §1

[4] = compound: C1=CC=C(C(=C1)C2=CC=C(C=C2)C3=CSC4=C3C(=C(C(=O)N4)C#N)O)O + C[C@@H](Oc1cc(-c2cnn(C3CCNCC3)c2)cnc1N)c1c(Cl)ccc(F)c1Cl [Crizotinib] (partner 1 µM)
Procedure, shortened: as §1

Cell Line | relative viability ([1]; first compound 0.08 µM) | relative viability ([1]; first compound 0.253 µM) | relative viability ([1]; first compound 0.8 µM) | relative viability ([1]; first compound 2.53 µM) | relative viability ([1]; first compound 8 µM) | relative viability ([2]; first compound 0.08 µM) | relative viability ([2]; first compound 0.253 µM) | relative viability ([2]; first compound 0.8 µM) | relative viability ([2]; first compound 2.53 µM) | relative viability ([2]; first compound 8 µM) | relative viability ([3]; first compound 0.08 µM) | relative viability ([3]; first compound 0.253 µM) | relative viability ([3]; first compound 0.8 µM) | relative viability ([3]; first compound 2.53 µM) | relative viability ([3]; first compound 8 µM) | relative viability ([4]; first compound 0.08 µM) | relative viability ([4]; first compound 0.253 µM) | relative viability ([4]; first compound 0.8 µM) | relative viability ([4]; first compound 2.53 µM) | relative viability ([4]; first compound 8 µM)
LU99A | 0.613 | 0.5 | 0.538 | 0.507 | 0.527 | 0.255 | 0.225 | 0.248 | 0.262 | 0.266 | 0.556 | 0.582 | 0.614 | 0.645 | 0.468 | 0.52 | 0.524 | 0.598 | 0.616 | 0.527
LXF-289 | 1.02 | 0.969 | 1.06 | 1.05 | 0.965 | 1.1 | 1.24 | 0.958 | 1.01 | 1.02 | 0.978 | 0.961 | 0.986 | 1 | 0.973 | 0.779 | 0.852 | 0.789 | 0.845 | 0.826
NCI-H23 | 0.652 | 0.695 | 0.833 | 0.719 | 0.421 | 0.282 | 0.298 | 0.37 | 0.336 | 0.273 | 0.614 | 0.58 | 0.679 | 0.603 | 0.402 | 0.466 | 0.686 | 0.381 | 0.511 | 0.386
NCI-H322M | 0.814 | 0.901 | 0.958 | 0.835 | 0.703 | 0.69 | 0.742 | 0.863 | 0.519 | 0.748 | 1.07 | 0.587 | 0.874 | 0.909 | 0.787 | 0.708 | 0.535 | 0.882 | 0.99 | 0.868
NCI-H358 | 0.708 | 0.862 | 0.788 | 0.973 | 0.763 | 0.4 | 0.654 | 0.531 | 0.562 | 0.587 | 0.868 | 0.742 | 0.69 | 0.914 | 0.595 | 0.59 | 0.478 | 0.718 | 0.516 | 0.553
NCI-H441 | – | 0.773 | – | 0.75 | 0.816 | 0.548 | 0.539 | 0.64 | 0.716 | 0.462 | 0.583 | 0.748 | 0.617 | 0.746 | 0.552 | 0.738 | 0.873 | 0.839 | 0.777 | 0.525
NCI-H460 | – | 0.67 | 0.596 | 0.588 | 0.387 | 0.341 | 0.406 | 0.331 | 0.452 | 0.434 | – | 0.81 | 0.682 | 1.06 | 0.657 | – | 1.03 | 0.955 | 1.03 | 0.27
NCI-H520 | 0.602 | 0.767 | 1.03 | 0.87 | 0.861 | 0.283 | 0.318 | 0.363 | 0.365 | 0.347 | 0.712 | 1.08 | 1.26 | 1.21 | 0.829 | 0.517 | 1.03 | 0.78 | 0.981 | 0.524
NCI-H596 | 0.397 | 0.541 | 0.489 | 0.497 | 0.447 | 0.594 | 0.683 | 0.695 | 0.539 | 0.658 | 0.967 | 1.17 | 1.13 | 1.1 | 0.733 | 0.96 | 1.02 | 1.08 | 0.97 | 0.834
NCI-H647 | 0.559 | 1 | 1.11 | 1.19 | 1.34 | – | 0.648 | 0.677 | 0.776 | 0.421 | 1.17 | 1.1 | 1.21 | 1.17 | 1.08 | 0.79 | 1.24 | 1.23 | 1.14 | 0.924
NCI-H650 | 1.1 | 1.36 | 0.961 | 1.11 | 1.22 | 0.42 | 0.375 | 0.402 | 0.495 | 0.432 | 0.857 | 0.817 | 0.737 | 0.914 | 0.716 | 0.713 | 1.05 | 0.633 | 0.703 | 0.719
NCI-H661 | 0.59 | 0.583 | 0.538 | 0.554 | 0.549 | 0.64 | 0.799 | 0.724 | 0.843 | 0.708 | 0.589 | 0.607 | 0.561 | 0.487 | 0.471 | – | 1.11 | 0.94 | 1.07 | 0.952
NCI-H727 | 0.59 | 0.642 | 0.539 | 0.688 | 0.655 | 0.829 | 0.795 | 0.704 | 0.756 | 0.825 | 0.242 | 0.238 | 0.284 | 0.237 | 0.237 | 0.701 | 0.961 | 0.864 | 0.995 | 0.756
NCI-H838 | 0.66 | 0.97 | 1.03 | 0.924 | 0.989 | 0.522 | 0.963 | 0.811 | 0.784 | 0.773 | 0.738 | 1.22 | 1.08 | 0.988 | 1.04 | 0.639 | 1.08 | 0.892 | 0.794 | 0.732
NCI-H1299 | 1.01 | 1.08 | 1.14 | 1.08 | 0.699 | 1.01 | 0.992 | 0.959 | 0.942 | 0.967 | 0.848 | 1 | 0.852 | 1.01 | 0.912 | 0.878 | 1.02 | 0.987 | 0.968 | 0.947
NCI-H1355 | 0.927 | 1 | 0.899 | 0.829 | 0.663 | 0.734 | 0.956 | 0.745 | 0.775 | 0.553 | 0.981 | 0.746 | 0.824 | 0.758 | 0.625 | 1.2 | 1.16 | 0.991 | 1.03 | 0.841
